Test results published in patent US20180133190A1, “MONOACYLGLYCEROLS AND FAT-SOLUBLE NUTRIENTS FOR USE IN THE TREATMENT OF NUTRIENT DEFICIENCY FROM MALDIGESTION” (NESTEC S.A., priority 2013, published 2018).

Experiments:
[1] = lipid maldigestion or malabsorption rat model (XENICAL-induced): EPA level in red blood cell lipids; type: in vivo, rats
Method: The concept was tested in a lipid maldigestion or malabsorption rat model. The maldigestion or malabsorption condition was obtained using XENICAL® (ORLISTAT), a pancreatic and gastric lipases inhibitor (tetrahydrolipstatin; see FIG. 7). Rats were fed during 21 days with long-chain polyunsaturated fatty acid (LC-PUFA) supplements containing mainly eicosapentaenoic (EPA) acid. Fish oil was used as a source of triacylglycerols, and different EPA glycerides were evaluated. XENICAL® (ORLISTAT) was given at a level sufficient to decrease lipid absorption by 40%. A group receiving fish oil without XENICAL® (ORLISTAT) was used as a positive control. At different time intervals (D3, D7, […]), the fatty acid profiles of red blood cell and plasma lipids were determined. At the end of the experiment, the fatty acid profiles of different tissues were determined. The main objective was to follow the level of EPA in red blood cell and plasma lipids. The main comparison evaluated was the difference in EPA level between the group receiving EPA-containing sn-1(3) MAG in combination with XENICAL® (ORLISTAT) and the positive control group (fish oil+XENICAL® (ORLISTAT)). […] This comparison corroborates the validity of the model.

[2] = clinical study: delivery of EPA under lipid maldigestion conditions induced by XENICAL (ORLISTAT); type: in vivo, humans
Method: This clinical study compared the efficacy of sn-1(3) MAG and fish oil (TAG) in delivering EPA in humans under lipid maldigestion conditions induced by XENICAL® (ORLISTAT). The comparison was tested in volunteers having a BMI of 37-40 kg/m2 and treated with XENICAL® (ORLISTAT) to induce lipid maldigestion or not treated with XENICAL® (ORLISTAT). The primary objective was to assess accretion of EPA in erythrocytes over 21 days when consumed as fish oil (TAG) or sn-1(3) MAG. The secondary objectives were to assess accretion of EPA in plasma over 21 days and also to assess the pharmacokinetics of EPA after an acute dose either in the form of sn-1(3) MAG or TAG (AUC in chylomicrons over 10 hours postprandial).

Structure (SMILES)	EPA incorporation in red blood cells, effect of lipase inhibitor ([1]; rats fed fish oil with vs without XENICAL (ORLISTAT), day 7, FIG. 2)	incorporation of LC-PUFAs in tissue ([1]; rats, conditions of lipid maldigestion or malabsorption)	level of EPA incorporated in red blood cells vs fish oil group (without XENICAL) ([1]; rats, with XENICAL (ORLISTAT), day 7, FIG. 2)	level of EPA incorporated in red blood cells vs fish oil + XENICAL (ORLISTAT) group ([1]; rats, with XENICAL (ORLISTAT), day 7, all P values lower than 0.05, FIG. 2)	chronic effect: accretion of EPA in erythrocytes after 21 days ([2]; humans, with XENICAL (ORLISTAT), in comparison to fish oil and XENICAL, p=0.0001, FIG. 5)	chronic effect: accretion of EPA in plasma after 21 days ([2]; humans, with XENICAL (ORLISTAT), relative to fish oil and XENICAL, p=0.0003, FIG. 6)	carrier for EPA compared with fish oil (TAG) ([2]; obese subjects treated with XENICAL (ORLISTAT))
CCCCCCCCCCC[C@@H](C[C@@H]1OC(=O)[C@H]1CCCCCC)OC(=O)[C@H](CC(C)C)NC=O [XENICAL® (ORLISTAT), tetrahydrolipstatin, reference compound]	decreases EPA incorporation in red blood cells						
CC/C=C\C/C=C\C/C=C\C/C=C\C/C=C\CCCC(=O)OCC(O)CO (stereo not shown) [sn-1(3) MAG that contained EPA, sn-1(3)-monoeicosapentaenoylglycerol]		the incorporation in tissue is improved	even higher than the fish oil group	statistically higher	statistically significant	statistically significant	better carrier for EPA than fish oil (TAG)
